From US20190060410A1, “Pharmaceutical Formulation Comprising GLP-1 Analogue and Preparation Method Thereof” (Hangzhou Jiuyuan Gene Engineering Co., Ltd., priority 2015, published 2019)

What was measured:
[1] = patients, combined with metformin (Nauck et al.); cited from earlier work
[2] = cited from earlier work
[3] = dissolution of liraglutide powder at different pHs; assay type: physicochemical
Experimental: Investigating the dissolution of liraglutide powder at different pHs
The appropriate amount of liraglutide powder was dissolved in the water for injection and the disodium hydrogen phosphate buffer at a different pH was added resulting in the dissolution shown in Table 1.

[4] = following subcutaneous injection; cited from earlier work

Question: Which incidence of hypoglycemia [1] does the source give for `CCC1=C(C)CN(C(=O)NCCc2ccc(S(=O)(=O)NC(=O)N[C@H]3CC[C@H](C)CC3)cc2)C1=O` [glimepiride] here?
Answer: The incidence of hypoglycemia was 17%.

Question: For “Arg^34, Lys^26 (N^ε-(γ-Glu (N^α-hexadecanoyl))) GLP-1 (7-37) [liraglutide]”, which “reduction of systolic blood pressure” value ([2]; LEAD series clinical trials, patients) is on record?
Answer: The value was 2.7-6.7 mmHg.

Question: What about the “patients who reported nausea” value ([2]; LEAD-2 and LEAD-3 clinical trials) of the same molecule?
Answer: Its value is less than 10%.

Question: And the Dissolution ([3]; 6 mg/ml liraglutide in water for injection)?
Answer: The Dissolution was “insoluble”.

Question: And the Dissolution ([3]; 6 mg/ml liraglutide, 10 mM disodium hydrogen phosphate buffer (pH 7.00))?
Answer: The Dissolution was “insoluble”.

Question: And the Dissolution ([3]; 6 mg/ml liraglutide, 10 mM disodium hydrogen phosphate buffer (pH 7.50))?
Answer: Its Dissolution is “colorless”.

Question: And the Dissolution ([3]; 6 mg/ml liraglutide, 10 mM disodium hydrogen phosphate buffer (pH 8.00))?
Answer: The Dissolution was “colorless”.

Question: What about the Dissolution ([3]; 6 mg/ml liraglutide, 10 mM disodium hydrogen phosphate buffer (pH 8.15)) of the same molecule?
Answer: Its Dissolution is “colorless”.

Question: And the Dissolution ([3]; 6 mg/ml liraglutide, 10 mM disodium hydrogen phosphate buffer (pH 8.50))?
Answer: The Dissolution was “colorless”.

Question: And the Dissolution ([3]; 6 mg/ml liraglutide, 10 mM disodium hydrogen phosphate buffer (pH 9.00))?
Answer: Its Dissolution is “colorless”.

Question: What about the “dissolution of liraglutide powder” value ([3]; acidic and neutral conditions) of the same molecule?
Answer: The value was “didn't dissolve”.

Question: What about the “dissolution of liraglutide powder” value ([3]; alkaline conditions) of the same molecule?
Answer: Its value is “readily dissolved”.

Question: What about the plasma half-life [4] of the same molecule?
Answer: Its plasma half-life is 13 h.

Question: And the incidence of hypoglycemia [1]?
Answer: Its incidence of hypoglycemia is “less than 3%”.
